From paper PMC5833756, “A novel ruthenium complex with xanthoxylin induces S-phase arrest and causes ERK1/2-mediated apoptosis in HepG2 cells through a p53-independent pathway” (Cell Death & Disease, 2018) come the findings set out here.

For test [1], the system named is HepG2 cell xenografts. The experiment in a line: Human hepatocellular carcinoma xenograft model. Type of test: in vivo, C.B-17 SCID mice. The conditions noted are these: 0.3 mg/kg doxorubicin, 10 mg/kg 5-fluorouracil, i.p. once a day for 21 days. Background: A xenograft is tissue or cells of one species grown in another, often human tumour cells in immunodeficient mice.
Description: Animals were housed in cages with free access to food and water. All animals were kept under a 12:12 h light-dark cycle (lights on at 6:00 a.m.). The local Animal Ethics Committee approved the experimental protocol (number 06/2015).
HepG2 cells (1 × 10^7 cells per 500 µL) were implanted subcutaneously into the left front armpit of the mice. […] The treatments were initiated one day after the tumor cell injection. The animals were treated intraperitoneally (200 µL per animal) once daily for 21 consecutive days. On the 22nd day, the animals were anesthetized, and peripheral blood samples were collected from the brachial artery. Animals were euthanized by anesthetic overdose, and tumors were excised and weighed.

For test [2], the system named is HepG2 cells. The experiment in a line: DNA synthesis quantification (methyl-[3H]-thymidine incorporation). Type of test: cell-based, human. As to the method: Cellular DNA synthesis was quantified by the incorporation of methyl-[^3H]-thymidine. Methyl-[^3H]-thymidine is a radiolabeled DNA precursor that is incorporated into newly synthesized DNA. Briefly, the complex was added along with 1 µCi of methyl-[^3H]-thymidine (PerkinElmer; Shelton, CT, USA) and incubated for 3 h. After this incubation period, cultures were harvested using a cell harvester (Brandel, Inc., Gaithersburg, MD, USA), and the amount of incorporated^3H-thymidine was determined using a liquid scintillation cocktail Hidex Maxilight (PerkinElmer Life Sciences; Groningen, GE, Netherlands) and a plate CHAMELEON V multilabel Counter (Mustionkatu 2, Turku, Finland). Mitoxantrone (Sigma-Aldrich) was used as the positive control.
A general note: Uptake of a labelled nucleoside into DNA is a usual measure of proliferation.

The subject of test [3] is HepG2 cells. The experiment in a line: Mitochondrial transmembrane potential (rhodamine 123). Type of test: cell-based, human. The conditions noted are these: HepG2, 24 h. As for the experimental part: Mitochondrial transmembrane potential was determined by the retention of the rhodamine 123 dye[38]. Cells were incubated with rhodamine 123 (5 μg/mL, Sigma-Aldrich Co.) at 37 °C for 15 min in the dark and washed with saline.

Test [4] has as its system caspase-8. In words: Caspase-8 colorimetric activation assay. Type of test: cell-based, human. The following applies: HepG2, 48 h. As for the experimental part:
(§1) A caspase-3 colorimetric assay kit (Sigma-Aldrich), caspase-8 colorimetric assay kit (BioVision Inc.; Milpitas, CA, USA) and caspase-9 colorimetric assay kit (Invitrogen; Frederick, MD, USA) were used to investigate the activation of caspase-3, -8 and -9 in RCX-treated HepG2, respectively. […] Briefly, cells were lysed by incubation with cell lysis buffer on ice for 10 min and then centrifuged. Enzyme reactions were carried out in a 96-well flat-bottom microplate. To each reaction mixture, 5 μL of cell lysate was added. Absorbance at 405 nm was measured using the SpectraMax 190 Microplate Reader (Molecular Devices). The results are expressed as the specific activity (IU/mg protein) of each caspase.

The subject of test [5] is caspase-9. In words: Caspase-9 colorimetric activation assay. Type of test: cell-based, human. The conditions noted are these: HepG2, 48 h. As to the method: as §1
Test [6] relates to ERK1/2 (pT202/pY204). In words: Phosflow analysis. Type of test: cell-based, human. The conditions noted are these: HepG2, 12 µM RCX, 15 min, 30 min, 24 h. As for the experimental part: (§2) Phosphorylated ERK 1/2, JNK/SAPK and p38 MAPK were analyzed by flow cytometry. In brief, cells were collected and resuspended in 0.5–1 mL of 4% formaldehyde and fixed for 10 min at 37 °C. Then, the tubes were chilled on ice for 1 min. The cells were permeabilized by slowly adding ice-cold 100% methanol to prechilled cells while gently vortexing to a final concentration of 90% methanol and were incubated for 30 min on ice. After washing with incubation buffer (0.5% bovine serum albumin in PBS), PE mouse anti-ERK1/2 (pT202/pY204), PE mouse anti-JNK/SAPK (pT183/pY185), PE mouse anti-p38 MAPK (pT180/pY182) or PE mouse IgG1, κ isotype control antibodies, all from BD Biosciences, were added and incubated for 1 h at room temperature.

In test [7] the test system is JNK/SAPK (pT183/pY185). In words: Phosflow analysis. Type of test: cell-based, human. The following applies: HepG2, 12 µM RCX, 15 min, 30 min, 24 h. As to the method: as §2
Test [8] concerns p38 MAPK (pT180/pY182). The experiment in a line: Phosflow analysis. Type of test: cell-based, human. The conditions noted are these: HepG2, 12 µM RCX, 15 min, 30 min, 24 h. As to the method: as §2
For test [9], the system named is HepG2 cells. The experiment in a line: Annexin V/PI staining assay (flow cytometry). The following applies: HepG2, 12 and 24 µM, 12-72 h. (Flow cytometry measures light scatter and fluorescence of single cells or particles in a stream.)
Description: For apoptosis detection, we used the FITC Annexin V Apoptosis Detection Kit I (BD Biosciences), and the analysis was performed according to the manufacturer’s instructions. Briefly, cells were washed twice with saline and then resuspended in 100 μL of binding buffer with 5 μL of PI and 5 μL of FITC Annexin V. The cells were gently mixed by vortexing and incubated for 15 min at room temperature in the dark. Afterwards, 400 μL of binding buffer was added to each tube, and the cell fluorescence was determined by flow cytometry, as described above. The percent of viable, early apoptotic, late apoptotic and necrotic cells were determined. […] The cells were then trypsinized, and the FITC Annexin V Apoptosis Detection assay was conducted as described above.

Consider `COc1cccc2c1C(=O)c1c(O)c3c(c(O)c1C2=O)C[C@@](O)(C(=O)CO)C[C@@H]3O[C@H]1C[C@H](N)[C@H](O)[C@H](C)O1` [DOX, doxorubicin], for which the “reduction of tumor weight” value in test [1] was determined as 27.2%.

Turning to `COc1cc([O-])c(C(C)=O)c(OC)c1.F[P-](F)(F)(F)(F)F.[Ru+2].c1cnc2c(c1)ccc1cccnc12.c1cnc2c(c1)ccc1cccnc12` [RCX, cis-[Ru(phen)2(xant)](PF6)], the “reduction of DNA synthesis” value in [2] (HepG2, 12 μM) was 46.4%; in [2] (HepG2, 24 μM), 65.2%. Moreover, the mitochondrial membrane potential entry in [3] was “induced mitochondrial depolarization”. Also, in test [4], the caspase-8 activity entry is recorded as “caused the activation of all caspases analyzed”. Besides, in test [5], the caspase-9 activity result was “caused the activation of all caspases analyzed”. Further, in [6], the “phosphorylation of ERK1/2” value was “induced the phosphorylation of ERK1/2 after 15- and 30-min incubations”. The “phosphorylation of JNK/SAPK” value in test [7] is “the phosphorylation of JNK/SAPK after a 15-min incubation”. For the same compound, in test [8], the “phosphorylation of p38 MAPK” value is reported as “an increase in the phosphorylation of p38 MAPK was not observed at any time point investigated”. Further, in test [9], the induction of apoptosis result is “caused apoptosis in a time- and concentration-dependent manner”.
